B1: IL4: interleukin tested on TF-1 cells (protein, UniProt P05112 25-153, looked up)
Interleukin-4: HKCDITLQEIIKTLNSLTEQKTLCTELTVTDIFAASKNTTEKETFCRAATVLRQFYSHHEKDTRCLGATAQQFHRHKQLIRFLKRLDRNLWGLAGLNSCPVKEANQSTLENFLERLKTIMREKYSKCSS

How the values were obtained:
[1] = test system: TF-1 cells; experiment: Differential response of TF-1 cells against stimuli and controls at one, two and five minutes (FIG. 9B); assay type: cell-based; conditions: two and five minutes after stimulation, factor 100:1 dilution in d-PBS, 25 microliter into approximately 200 microliters cell suspension
Text: FIG. 9B illustrates a second set of experiments, in which the differential responses of a population of TF-1 cells against numerous stimuli and controls are shown at one minute, two minutes, and five minutes after stimulation. In these experiments, a population of TF-1 cells was fractionated into two portions of equal volume and cell density immediately before the experiment. One of the two fractions received a potential stimulus, and the other a control in the form of a quantity of pure Dulbecco's phosphate buffered saline (d-PBS)equal to the quantity of d-PBS which contained the stimulant. […] Next, a series of factors and interleukins was compared against a reference sample. Each factor was introduced into one of two fractionated volumes containing TF-1 cells, via a 100:1 dilution of factor to d-PBS, followed by a 25 microliter addition of the diluted factor into approximately 200 microliters of the cell suspension. At the same time, the reference population of cells was prepared by adding 25 microliters of d-PBS alone into the second of the two cell fractions. Both fractions were then inserted into their respective channels in the apparatus, wherein said reference population was always inserted in the same channel, and measurements of the differential voltage were taken at pre-defined intervals over a five minute period. After each experiment, both channels were flushed with ˜2 ml of cell-free culture media, to insure that all previous cellular material and any other potential compounds from a given experiment were removed from the channel before the subsequent experiment.

[2] = test system: TF-1 cells; conditions: stated as known, background knowledge; cited from earlier work
[3] = target: concanavalin-A (Canavalia ensiformis, UniProt P02866); experiment: Binding of dextran in solution to concanavalin-A immobilized on the measurement probes (FIG. 6); conditions: phosphate buffered saline with calcium and magnesium, physiologic pH and osmolarity; regions 600b and 600c of FIG. 6
Text: A common AC voltage of approximately 40 millivolts and at a frequency of approximately 1 KHz is placed upon measurement probes 313 and 323. The circuit continues across the interface of measurement probes 313 and 323, through the conductive solution in sample chambers 310 and 320, and completed via attachment of signal grounds 314 and 324.
The voltage difference between measurement probes 313 and 317 is placed across the antipodal inputs of the first differential amplifier 221; similarly, the voltage across measurement probes 323 and 327 is placed across antipodal inputs of the second differential amplifier 222. The amplified differential voltages produced by 221 and 222 are fed into DC-converters 224 and 225 (e.g., root-mean-square averaging devices. The outputs 221a and 222a, being now of a DC nature, are input into antipodal inputs of the third differential amplifier 226, the resulting difference signal 227 being measured by a simple voltmeter 400, said voltmeter referenced to the common ground. This voltage is directly proportional to the difference in the voltage drops across the two pairs of measurement probes 313 and 317, and 323 and 327.
FIG. 6 illustrates the result of a second experiment using the monitoring system of FIG. 3B. […]

[4] = test system: TF-1 cells; experiment: Differential response of TF-1 cells stimulated vs un-stimulated, monitoring system of FIG. 8 (FIG. 9A); assay type: cell-based
Text: In this set of experiments, the monitoring system as shown in FIG. 8 was used to directly compare the activity of a known modification of the extra-cellular environment to controls. In the monitoring system of FIG. 8, two sample chambers (formed a fluid channels) 800a and 800b, along with four ports 801a-d, were fabricated using micromachining techniques on an acrylic substrate. The dimensions of the channels were approximately 250 micrometers wide, 100 micrometers deep, and with a total length of approximately 1.5 centimeters. The substrate was fastened in a water-tight manner, using thin film epoxy, to a pre-fabricated printed circuit board (not explicitly shown), on which eight gold-plated copper conductive traces 820a-d and 830a-d of width approximately 250 micrometers were deposited. Using the monitoring system architecture shown in FIG. 3D, in which the phase meter 223 was not present and DC-converters 224 and 225 comprised a device which converts and AC signal into a DC signal, whose amplitude is roughly the root-mean-square (RMS) of the AC amplitude. […]

Molecule	differential response over the three controls [1]	known activity against TF-1 cells [2]	other results
IL5: interleukin tested on TF-1 cells	significantly larger differential response over the three controls		
bovine serum albumin [BSA, reference compound]		known not to affect TF-1 cells	
dextran			binding of dextran to immobilized concanavalin-A, shown as new voltage level [3]: bound specifically to the immobilized concanavalin-A molecules
granulocyte-macrophage colony stimulating factor [GM-CSF]	significantly larger differential response over the three controls	induces cell proliferation in TF-1 cells	time at which change in differential response begins ([4]; AC approximately 10 KHz, thirty minute experiment, change continues nearly monotonic): around eight; differential response of stimulated cells over the control ([4]; AC frequency approximately 10 KHz, about 2 million cells per milliliter, GM-CSF in quantity to elicit maximum response, followed thirty minutes): show a change in the differential response over the control
B1	significantly larger differential response over the three controls		

From patent publication US7713477B2, “Systems and methods for monitoring chemical and biological activities using differential measurements” (priority 2002, dated 2010)
